Measurements as given in publication PMC5003625 (Journal of medicinal chemistry, 2016).

Assays:
[1] = tested on: EZH2; details: cited from earlier work; for selectivity for EZH2 over EZH1: reported inhibitors
[2] = biological target: EZH1 pentameric complex (EZH1:EED:SUZ12:RBBP4:AEBP2) (Homo sapiens, UniProt Q92800); assay: Methyltransferase activity assay; type: biochemical
[3] = biological target: EZH2 trimeric complex (EZH2:EED:SUZ12) (Homo sapiens, UniProt Q15910); assay: Methyltransferase activity assay; type: biochemical; details: for fold loss of potency for EZH2: relative to the parent compound of the sentence (5, 24 or 53)
EZH2 trimeric complex (EZH2:EED:SUZ12), sequence (Q15910 whole entry): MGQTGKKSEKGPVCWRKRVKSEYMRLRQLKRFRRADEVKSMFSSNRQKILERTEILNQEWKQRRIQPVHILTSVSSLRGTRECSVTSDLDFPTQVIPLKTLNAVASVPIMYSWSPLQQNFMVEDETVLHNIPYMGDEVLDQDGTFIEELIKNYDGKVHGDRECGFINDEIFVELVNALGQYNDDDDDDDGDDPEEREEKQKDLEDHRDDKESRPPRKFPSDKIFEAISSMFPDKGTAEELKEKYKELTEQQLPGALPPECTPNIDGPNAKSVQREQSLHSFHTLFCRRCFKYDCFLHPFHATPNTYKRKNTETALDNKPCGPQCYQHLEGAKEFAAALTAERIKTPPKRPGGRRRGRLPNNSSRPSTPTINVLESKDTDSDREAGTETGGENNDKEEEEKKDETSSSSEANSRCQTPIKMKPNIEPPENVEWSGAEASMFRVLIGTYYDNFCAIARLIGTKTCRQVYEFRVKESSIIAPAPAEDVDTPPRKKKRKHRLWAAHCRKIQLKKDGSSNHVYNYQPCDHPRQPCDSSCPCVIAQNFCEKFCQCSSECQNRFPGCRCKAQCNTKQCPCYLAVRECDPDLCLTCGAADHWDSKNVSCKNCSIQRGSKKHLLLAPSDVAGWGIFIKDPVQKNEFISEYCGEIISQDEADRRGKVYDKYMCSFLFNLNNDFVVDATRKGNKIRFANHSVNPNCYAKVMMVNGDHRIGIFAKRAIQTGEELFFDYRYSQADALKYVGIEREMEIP
EZH2 trimeric complex (EZH2:EED:SUZ12), sequence (O75530 whole entry partner): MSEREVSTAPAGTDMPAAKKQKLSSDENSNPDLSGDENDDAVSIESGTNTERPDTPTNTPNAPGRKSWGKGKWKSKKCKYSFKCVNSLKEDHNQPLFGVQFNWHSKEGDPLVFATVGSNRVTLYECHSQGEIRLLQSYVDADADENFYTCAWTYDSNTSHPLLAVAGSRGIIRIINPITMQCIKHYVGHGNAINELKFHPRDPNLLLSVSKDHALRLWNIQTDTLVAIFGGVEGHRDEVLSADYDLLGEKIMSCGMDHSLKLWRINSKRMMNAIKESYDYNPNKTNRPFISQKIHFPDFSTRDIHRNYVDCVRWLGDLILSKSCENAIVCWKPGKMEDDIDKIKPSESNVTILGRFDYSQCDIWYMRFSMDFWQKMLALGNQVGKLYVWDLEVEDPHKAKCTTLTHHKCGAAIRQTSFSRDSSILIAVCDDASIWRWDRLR
EZH2 trimeric complex (EZH2:EED:SUZ12), sequence (Q15022 whole entry partner): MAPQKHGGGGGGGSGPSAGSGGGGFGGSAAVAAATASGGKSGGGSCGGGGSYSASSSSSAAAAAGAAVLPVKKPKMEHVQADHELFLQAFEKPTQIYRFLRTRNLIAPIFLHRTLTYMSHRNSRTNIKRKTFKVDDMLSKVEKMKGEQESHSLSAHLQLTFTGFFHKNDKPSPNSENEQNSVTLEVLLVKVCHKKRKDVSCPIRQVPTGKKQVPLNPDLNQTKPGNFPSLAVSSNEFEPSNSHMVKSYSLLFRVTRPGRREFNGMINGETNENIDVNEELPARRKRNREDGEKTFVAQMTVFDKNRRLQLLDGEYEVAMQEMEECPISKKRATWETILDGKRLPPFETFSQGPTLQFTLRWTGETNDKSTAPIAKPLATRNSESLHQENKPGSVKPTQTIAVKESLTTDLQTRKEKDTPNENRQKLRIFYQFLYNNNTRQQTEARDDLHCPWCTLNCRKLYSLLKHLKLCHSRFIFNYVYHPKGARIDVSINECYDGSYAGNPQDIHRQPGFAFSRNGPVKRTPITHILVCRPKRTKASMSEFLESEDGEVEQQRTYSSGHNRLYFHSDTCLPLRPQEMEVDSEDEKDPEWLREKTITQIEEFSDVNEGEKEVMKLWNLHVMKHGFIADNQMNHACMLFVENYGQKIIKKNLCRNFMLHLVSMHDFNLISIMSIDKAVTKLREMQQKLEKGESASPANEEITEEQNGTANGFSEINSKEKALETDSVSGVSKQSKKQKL

EZH1 pentameric complex (EZH1:EED:SUZ12:RBBP4:AEBP2), sequence (Q92800 whole entry): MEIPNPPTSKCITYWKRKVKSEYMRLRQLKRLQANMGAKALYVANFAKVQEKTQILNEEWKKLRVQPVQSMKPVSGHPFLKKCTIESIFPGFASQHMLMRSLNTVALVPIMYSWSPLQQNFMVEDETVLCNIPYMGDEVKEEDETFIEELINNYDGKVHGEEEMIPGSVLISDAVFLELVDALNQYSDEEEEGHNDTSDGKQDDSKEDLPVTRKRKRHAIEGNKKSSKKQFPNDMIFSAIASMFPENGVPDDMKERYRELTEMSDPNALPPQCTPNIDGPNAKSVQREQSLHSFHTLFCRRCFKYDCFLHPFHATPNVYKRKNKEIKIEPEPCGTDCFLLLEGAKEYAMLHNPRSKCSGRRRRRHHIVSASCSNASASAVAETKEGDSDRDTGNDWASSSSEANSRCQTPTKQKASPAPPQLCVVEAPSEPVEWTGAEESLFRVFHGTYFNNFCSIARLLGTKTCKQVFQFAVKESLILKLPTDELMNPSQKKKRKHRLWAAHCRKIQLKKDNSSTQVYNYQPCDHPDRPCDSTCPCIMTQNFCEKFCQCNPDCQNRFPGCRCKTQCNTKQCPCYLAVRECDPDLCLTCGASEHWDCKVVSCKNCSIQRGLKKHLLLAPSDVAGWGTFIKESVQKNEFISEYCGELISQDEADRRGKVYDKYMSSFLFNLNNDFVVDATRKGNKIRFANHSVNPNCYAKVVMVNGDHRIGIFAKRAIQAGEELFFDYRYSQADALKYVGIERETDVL
EZH1 pentameric complex (EZH1:EED:SUZ12:RBBP4:AEBP2), sequence (O75530 whole entry partner): as the sequence (O75530 whole entry partner) above
EZH1 pentameric complex (EZH1:EED:SUZ12:RBBP4:AEBP2), sequence (Q15022 whole entry partner): as the sequence (Q15022 whole entry partner) above
EZH1 pentameric complex (EZH1:EED:SUZ12:RBBP4:AEBP2), sequence (Q09028 whole entry partner): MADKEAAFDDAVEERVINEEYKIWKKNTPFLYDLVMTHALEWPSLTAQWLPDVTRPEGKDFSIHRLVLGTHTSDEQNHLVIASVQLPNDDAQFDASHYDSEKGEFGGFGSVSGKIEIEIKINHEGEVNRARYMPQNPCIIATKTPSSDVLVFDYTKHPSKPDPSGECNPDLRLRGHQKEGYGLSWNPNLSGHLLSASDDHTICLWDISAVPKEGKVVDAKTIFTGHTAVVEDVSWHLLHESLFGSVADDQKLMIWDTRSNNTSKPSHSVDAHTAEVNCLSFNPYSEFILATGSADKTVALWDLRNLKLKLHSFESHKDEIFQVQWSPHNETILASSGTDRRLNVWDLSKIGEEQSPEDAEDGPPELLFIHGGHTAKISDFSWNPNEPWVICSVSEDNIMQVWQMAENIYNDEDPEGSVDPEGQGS
EZH1 pentameric complex (EZH1:EED:SUZ12:RBBP4:AEBP2), sequence (Q6ZN18 whole entry partner): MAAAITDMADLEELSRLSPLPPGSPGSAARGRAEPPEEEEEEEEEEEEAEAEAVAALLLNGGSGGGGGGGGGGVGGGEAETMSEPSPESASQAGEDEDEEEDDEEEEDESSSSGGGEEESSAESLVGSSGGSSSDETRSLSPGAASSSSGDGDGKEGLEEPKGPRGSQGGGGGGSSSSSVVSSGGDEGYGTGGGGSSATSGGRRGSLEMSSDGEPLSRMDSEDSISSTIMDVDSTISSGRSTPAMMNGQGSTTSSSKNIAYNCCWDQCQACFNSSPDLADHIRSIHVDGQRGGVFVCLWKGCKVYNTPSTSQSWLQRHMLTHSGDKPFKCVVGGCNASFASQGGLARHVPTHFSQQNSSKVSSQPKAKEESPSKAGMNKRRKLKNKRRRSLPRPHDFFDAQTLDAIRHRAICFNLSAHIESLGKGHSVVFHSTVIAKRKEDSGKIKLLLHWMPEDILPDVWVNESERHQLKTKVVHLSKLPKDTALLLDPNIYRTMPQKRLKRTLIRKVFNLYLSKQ

For `Cc1cc(C)c(CNC(=O)c2cc(-c3ccc(CN4CCOCC4)cc3)cc3c2cnn3C2CCCC2)c(=O)[nH]1` [Compound 1, EPZ005687], the “selectivity for EZH2 over EZH1” value [1] is given as 50 fold.
For `CC[C@H](C)n1cc(C)c2c(C(=O)NCc3c(C)cc(C)[nH]c3=O)cc(-c3ccc(N4CCNCC4)nc3)cc21` [Compound 2, GSK126], the “selectivity for EZH2 over EZH1” value [1] is given as 150 fold.
For `CCCc1cc(C)[nH]c(=O)c1CNC(=O)c1cc(-c2ccnc(N3CCN(C)CC3)c2)cc2c1cnn2C(C)C` [Compound 3, GSK343], the “selectivity for EZH2 over EZH1” value [1] is given as 60 fold.
For `CCC(CC)n1ccc2c(C(=O)NCc3c(C)cc(C)[nH]c3=O)cc(C#N)cc21` [Compound 4, EI1], the “selectivity for EZH2 over EZH1” value [1] is given as 140 fold.
In the case of `CCCc1cc(C)[nH]c(=O)c1CNC(=O)c1cc(-c2ccc(N3CCN(C(C)C)CC3)nc2)cc2c1cnn2C(C)C` [Compound 5, UNC1999], the IC50 ([1]; read-out: IC50 EZH2, previously reported) is given as under 10 nM.
In the case of `COc1cc(C)[nH]c(=O)c1CNC(=O)c1c(C)n([C@H](C)C2CCOCC2)c2ccccc12` [Compound 8, CPI-360], the “selectivity for EZH2 over EZH1” value [1] is given as 100 fold.
In the case of `CCN(c1cc(-c2ccc(N3CCN(C)CC3)nc2)cc(C(=O)NCc2c3c(c(C)[nH]c2=O)CCCC3)c1C)C1CCOCC1` [Compound 10, ZLD1039], the “selectivity for EZH2 over EZH1” value [1] is given as 12 fold.
For `CCCc1cc(C)[nH]c(=O)c1CNC(=O)c1cccn2c(-c3ccc(N4CCN(C(C)C)CC4)nc3)cnc12` [Compound 48, 3-(6-(4-Isopropylpiperazin-1-yl)pyridin-3-yl)-N-((6-methyl-2-oxo-4-propyl-1,2-dihydropyridin-3-yl)methyl)imidazo[1,2-a]pyridine-8-carboxamide], the “inhibitory activity against EZH1, in words” value [2] was “did not display any inhibitory activity” and the “inhibitory activity against EZH2, in words” value [3] was “did not display any inhibitory activity”.
In the case of `CCCc1cc(C)[nH]c(=O)c1CNC(=O)c1cnn2c(-c3ccc(N4CCN(C(C)C)CC4)nc3)cccc12` [Compound 49, 7-(6-(4-Isopropylpiperazin-1-yl)pyridin-3-yl)-N-((6-methyl-2-oxo-4-propyl-1,2-dihydropyridin-3-yl)methyl)pyrazolo[1,5-a]pyridine-3-carboxamide], the “inhibitory activity against EZH1, in words” value [2] is reported as “did not display any inhibitory activity” and the “inhibitory activity against EZH2, in words” value [3] is reported as “did not display any inhibitory activity”.
With `CCCc1cc(C)[nH]c(=O)c1CNC(=O)c1cn2ccc(-c3ccc(N4CCN(C(C)C)CC4)nc3)cc2n1` [Compound 50, 7-(6-(4-Isopropylpiperazin-1-yl)pyridin-3-yl)-N-((6-methyl-2-oxo-4-propyl-1,2-dihydropyridin-3-yl)methyl)imidazo[1,2-a]pyridine-2-carboxamide] the “inhibitory activity against EZH1, in words” value [2] was “inactive” and the “inhibitory activity against EZH2, in words” value [3] was “inactive”.
With `CCCc1cc(C)[nH]c(=O)c1CNC(=O)c1cc(-c2ccc(N3CCN(C(C)C)CC3)nc2)cc2c1cnn2C` [Compound 55, 6-(6-(4-Isopropylpiperazin-1-yl)pyridin-3-yl)-1-methyl-N-((6-methyl-2-oxo-4-propyl-1,2-dihydropyridin-3-yl)methyl)-1H-inda-zole-4-carboxamide] the “inhibitory activity against EZH1, in words” value [2] was “did not have appreciable inhibitory activity” and the “fold loss of potency for EZH2” value [3] was 10–20 fold.
In the case of `CCCc1cc(C)[nH]c(=O)c1CNC(=O)c1cc(-c2ccc(N3CCN(C(C)C)CC3)nc2)cc2c1cnn2C1CCCCCC1` [Compound 56, 1-Cycloheptyl-6-(6-(4-isopropylpiperazin-1-yl)pyridin-3-yl)-N-((6-methyl-2-oxo-4-propyl-1,2-dihydropyridin-3-yl)methyl)-1H-inda-zole-4-carboxamide], the “inhibitory activity against EZH1, in words” value [2] is reported as “did not have appreciable inhibitory activity” and the “fold loss of potency for EZH2” value [3] is reported as 10–20 fold.
For `CCCc1cc(C)[nH]c(=O)c1CNC(=O)c1cc(-c2ccc(N3CCN(CC)CC3)nc2)cc2c1cnn2C(C)C` [Compound 64], the “inhibitory activity against EZH1, in words” value [2] was “did not affect the potency” and the “inhibitory activity against EZH2, in words” value [3] was “did not affect the potency”.
With `CCCc1cc(C)[nH]c(=O)c1CNC(=O)c1cc(-c2ccc(N3CCNCC3)nc2)cc2c1cnn2C(C)C` [Compound 65] the “inhibitory activity against EZH1, in words” value [2] was “did not affect the potency” and the “inhibitory activity against EZH2, in words” value [3] was “did not affect the potency”.
